Reference: patent US5210193A, “Piperazine derivatives” (American Cyanamid Company, priority 1990, dated 1993)
In brackets after ≈: the same amount, converted by molar mass.

What was measured:
Test in all cases: in vitro antibacterial MIC, agar plate dilution
Format in all cases: cell-based
Escherichia coli NAR 311 = settings: NAR311, 18 hours, 35° C., read-out: MIC
In short: (§1)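 Minimal inhibitory concentrations came from agar plate dilution in Mueller-Hinton medium. Each organism was delivered at roughly 10^4 CFU by Steers replicator. Plates were read for visible growth after 18 hours at 35° C, values in mcg/ml.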

[1] = test system: Pseudomonas aeruginosa LL-1244; settings: Pseudomonas aeruginosa, LL1244, 18 h, 35° C., read-out: MIC
In short: as §1

[2] = test system: Proteus rettgeri CMC 84-41; settings: Providencia rettgeri, CMC8441, 18 h, 35° C., read-out: MIC
In short: as §1

[3] = test system: Staphylococcus aureus CMC 83-128; settings: CMC83128, 18 hours, 35° C., read-out: MIC
In short: as §1

[4] = test system: Streptococcus faecalis ATTC 29212; settings: Enterococcus faecalis, ATTC29212, 18 hours, 35° C., read-out: MIC
In short: as §1

[5] = test system: Escherichia coli CMC 84-11; settings: Escherichia coli, CMC8411, 18 h, 35° C., read-out: MIC
In short: as §1

[6] = test system: Enterobacter cloacae K 84-10; settings: Enterobacter cloacae, K8410, 18 h, 35° C., read-out: MIC
In short: as §1

[7] = test system: Escherichia coli ATCC 25922; settings: Escherichia coli, ATCC25922, 18 h, 35° C., read-out: MIC
In short: as §1

[8] = test system: Klebsiella pneumoniae MOR 84-4; settings: Klebsiella pneumoniae, MOR844, 18 h, 35° C., read-out: MIC
In short: as §1

[9] = test system: Staphylococcus aureus CMC 83-127; settings: Staphylococcus aureus, CMC83127, 18 h, 35° C., read-out: MIC
In short: as §1

[10] = test system: Staphylococcus aureus ATCC 25913; settings: ATCC25913, 18 hours, 35° C.
In short: as §1

[11] = test system: Escherichia coli PRNT 311; settings: PRNT311, 18 hours, 35° C., read-out: MIC
In short: as §1

[12] = test system: Acinetobacter calcoaceticus MOR 84-43; settings: MOR8443, 18 hours, 35° C., read-out: MIC
In short: as §1

[13] = test system: Enterobacter aerogenes VGH 84-36; settings: Klebsiella aerogenes, VGH8436, 18 hours, 35° C., read-out: MIC
In short: as §1

Klebsiella pneumoniae AD = settings: Klebsiella pneumoniae, 18 h, 35° C., read-out: MIC
In short: as §1

[14] = test system: Staphylococcus aureus VGH 84-46; settings: Staphylococcus aureus, VGH8446, 18 h, 35° C., read-out: MIC
In short: as §1

[15] = test system: Streptococcus faecalis VGH 84-65; settings: Enterococcus faecalis, VGH8465, 18 h, 35° C., read-out: MIC
In short: as §1

[16] = test system: Staphylococcus Spp saprophiticus VGH 84-50; settings: 18 hours, 35° C., read-out: MIC
In short: as §1

[17] = test system: Serratia marcescens F 0-35; settings: Serratia marcescens, F035, 18 h, 35° C., read-out: MIC
In short: as §1

[18] = test system: Serratia marcescens K 84-18; settings: Serratia marcescens, K8418, 18 h, 35° C., read-out: MIC
In short: as §1

[19] = test system: Staphylococcus aureus Smith; settings: Staphylococcus aureus, 18 h, 35° C., read-out: MIC
In short: as §1

[20] = test system: Pseudomonas aeruginosa VGH 84-4; settings: Pseudomonas aeruginosa, VGH844, 18 h, 35° C., read-out: MIC
In short: as §1

[21] = test system: Escherichia coli CMC 84-16; settings: Escherichia coli, CMC8416, 18 h, 35° C., read-out: MIC
In short: as §1

[22] = test system: Morganella morganii CMC 84-37; settings: Morganella morganii, CMC8437, 18 h, 35° C., read-out: MIC
In short: as §1

[23] = test system: Morganella morganii VGH 84-11; settings: VGH8411, 18 hours, 35° C., read-out: MIC
In short: as §1

[24] = test system: Klebsiella oxytoca MOR 84-28; settings: MOR8428, 18 hours, 35° C.
In short: as §1

[25] = test system: Staphylococcus epidermidis VGH 84-40; settings: VGH8440, 18 hours, 35° C., read-out: MIC
In short: as §1

[26] = test system: Staphylococcus aureus ATTC 29213; settings: Staphylococcus aureus, ATTC29213, 18 h, 35° C., read-out: MIC
In short: as §1

[27] = test system: Enterobacter cloacae VGH 84-37; settings: Enterobacter cloacae, VGH8437, 18 h, 35° C., read-out: MIC
In short: as §1

[28] = test system: Staphylococcus epidermidis CMC 83-135; settings: CMC83135, 18 hours, 35° C., read-out: MIC
In short: as §1

[29] = test system: Staphylococcus epidermidis IO 83-58; settings: IO8358, 18 hours, 35° C., read-out: MIC
In short: as §1

[30] = test system: Staphylococcus aureus VGH 84-45; settings: Staphylococcus aureus, VGH8445, 18 h, 35° C., read-out: MIC
In short: as §1

Row | SMILES | MIC (Escherichia coli NAR 311) | MIC [1] | MIC [2] | MIC [3] | MIC [4] | MIC [5] | MIC [6] | MIC [7] | MIC [8] | MIC [9] | MIC [11] | MIC [12] | MIC [13] | MIC (Klebsiella pneumoniae AD) | MIC [14] | MIC [15] | MIC [16] | MIC [17] | MIC [18] | MIC [19] | other results
1 | CCn1cc(C(=O)O)c(=O)c2cc(F)c(N3CCNC(c4ccco4)C3)cc21 (stereo not drawn) [Example 28, 1-Ethyl-6-fluoro-7-[3-(2-furanyl)-1-piperazinyl]-1,4-dihydro-4-oxo-3-quinolinecarboxylic acid] | 4 mg/L (≈ 10.4 µM) | 32 mg/L (≈ 83 µM) | 0.25 mg/L (≈ 0.649 µM) | ≤ 0.12 mg/L | 2 mg/L (≈ 5.19 µM) | ≤ 0.12 mg/L | 0.25 mg/L (≈ 0.649 µM) | ≤ 0.12 mg/L | 0.25 mg/L (≈ 0.649 µM) | ≤ 0.06 mg/L | 0.5 mg/L (≈ 1.3 µM) | 2 mg/L (≈ 5.19 µM) | 0.5 mg/L (≈ 1.3 µM) | ≤ 0.12 mg/L | ≤ 0.12 mg/L | 2 mg/L (≈ 5.19 µM) | 1 mg/L (≈ 2.59 µM) | 1 mg/L (≈ 2.59 µM) | 1 mg/L (≈ 2.59 µM) | ≤ 0.12 mg/L | MIC [10]: ≤ 0.12 mg/L; MIC [20]: 4 mg/L (≈ 10.4 µM); MIC [21]: ≤ 0.12 mg/L; MIC [22]: 0.25 mg/L (≈ 0.649 µM); MIC [23]: 0.25 mg/L (≈ 0.649 µM); MIC [24]: 0.5 mg/L (≈ 1.3 µM); MIC [25]: ≤ 0.12 mg/L; MIC [26]: 0.25 mg/L (≈ 0.649 µM); MIC [27]: ≤ 0.12 mg/L; MIC [28]: ≤ 0.12 mg/L; MIC [29]: 0.25 mg/L (≈ 0.649 µM); MIC [30]: ≤ 0.06 mg/L
2 | CCn1cc(C(=O)O)c(=O)c2cc(F)c(N3CCN(C)C(c4sc5ccccc5c4C)C3)cc21 (stereo not drawn) [Example 54, 1-Ethyl-6-fluoro-1,4-dihydro-7-[4-methyl-3-(3-methyl-benzo[b]thien-2-yl)-1-oiperazinyl]-4-oxo-3-quinolinecarboxylic acid] | > 256 mg/L | > 256 mg/L | > 256 mg/L | 64 mg/L (≈ 133 µM) | > 256 mg/L | > 256 mg/L | > 256 mg/L | > 256 mg/L | > 256 mg/L | 32 mg/L (≈ 66.7 µM) | > 256 mg/L | > 256 mg/L | > 256 mg/L | > 256 mg/L | > 256 mg/L | > 256 mg/L | > 256 mg/L | > 256 mg/L | > 256 mg/L | 64 mg/L (≈ 133 µM) | MIC [20]: > 256 mg/L; MIC [21]: > 256 mg/L; MIC [22]: > 256 mg/L; MIC [23]: > 256 mg/L; MIC [24]: > 256 mg/L; MIC [25]: > 256 mg/L; MIC [26]: 256 mg/L (≈ 534 µM); MIC [27]: > 256 mg/L; MIC [28]: > 256 mg/L; MIC [29]: > 256 mg/L; MIC [30]: 256 mg/L (≈ 534 µM)
3 | CCn1cc(C(=O)O)c(=O)c2cc(F)c(N3CCNC(c4ccsc4)C3)cc21 (stereo not drawn) [Example 30] | 4 mg/L (≈ 9.96 µM) | 32 mg/L (≈ 79.7 µM) | 0.25 mg/L (≈ 0.623 µM) | 0.5 mg/L (≈ 1.25 µM) | 4 mg/L (≈ 9.96 µM) | 0.12 mg/L (≈ 0.299 µM) | 0.5 mg/L (≈ 1.25 µM) | 0.12 mg/L (≈ 0.299 µM) | 0.25 mg/L (≈ 0.623 µM) | 0.12 mg/L (≈ 0.299 µM) | 0.5 mg/L (≈ 1.25 µM) | 4 mg/L (≈ 9.96 µM) | 0.5 mg/L (≈ 1.25 µM) | 0.12 mg/L (≈ 0.299 µM) | 0.25 mg/L (≈ 0.623 µM) | 4 mg/L (≈ 9.96 µM) | 2 mg/L (≈ 4.98 µM) | 1 mg/L (≈ 2.49 µM) | 0.5 mg/L (≈ 1.25 µM) | 0.12 mg/L (≈ 0.299 µM) | MIC [10]: 0.25 mg/L (≈ 0.623 µM); MIC [20]: 4 mg/L (≈ 9.96 µM); MIC [21]: 0.25 mg/L (≈ 0.623 µM); MIC [22]: 0.25 mg/L (≈ 0.623 µM); MIC [23]: 0.12 mg/L (≈ 0.299 µM); MIC [24]: 0.5 mg/L (≈ 1.25 µM); MIC [25]: 0.25 mg/L (≈ 0.623 µM); MIC [26]: 0.5 mg/L (≈ 1.25 µM); MIC [27]: 0.12 mg/L (≈ 0.299 µM); MIC [28]: 0.25 mg/L (≈ 0.623 µM); MIC [29]: 0.5 mg/L (≈ 1.25 µM); MIC [30]: 0.25 mg/L (≈ 0.623 µM)
4 | CCn1cc(C(=O)O)c(=O)c2c(F)c(F)c(N3CCN(C)CC3)c(F)c21 [Example 85, 1-Ethyl-5,6,8-trifluoro-1,4-dihydro-7-(4-methyl-1-piperazinyl) -4-oxo-3-quinolinecarboxylic acid] | 4 mg/L (≈ 10.8 µM) | 16 mg/L (≈ 43.3 µM) | 0.5 mg/L (≈ 1.35 µM) | 2 mg/L (≈ 5.42 µM) | 8 mg/L (≈ 21.7 µM) | 0.12 mg/L (≈ 0.325 µM) | 0.12 mg/L (≈ 0.325 µM) | 0.12 mg/L (≈ 0.325 µM) | 0.5 mg/L (≈ 1.35 µM) | 0.5 mg/L (≈ 1.35 µM) | 0.12 mg/L (≈ 0.325 µM) | 1 mg/L (≈ 2.71 µM) | 0.5 mg/L (≈ 1.35 µM) | 0.25 mg/L (≈ 0.677 µM) | 1 mg/L (≈ 2.71 µM) | 16 mg/L (≈ 43.3 µM) | 8 mg/L (≈ 21.7 µM) | 0.5 mg/L (≈ 1.35 µM) | 0.5 mg/L (≈ 1.35 µM) | 1 mg/L (≈ 2.71 µM) | MIC [20]: 4 mg/L (≈ 10.8 µM); MIC [21]: 0.06 mg/L (≈ 0.162 µM); MIC [22]: 0.12 mg/L (≈ 0.325 µM); MIC [23]: 0.12 mg/L (≈ 0.325 µM); MIC [24]: 1 mg/L (≈ 2.71 µM); MIC [25]: 1 mg/L (≈ 2.71 µM); MIC [26]: 2 mg/L (≈ 5.42 µM); MIC [27]: 0.12 mg/L (≈ 0.325 µM); MIC [28]: 2 mg/L (≈ 5.42 µM); MIC [29]: 1 mg/L (≈ 2.71 µM); MIC [30]: 1 mg/L (≈ 2.71 µM)
